Measured values from paper PMC5454592, “Pharmacological and Toxicological Properties of the Potent Oral γ-Secretase Modulator BPN-15606” (The Journal of Pharmacology and Experimental Therapeutics, 2017).

Assays:
γ-secretase [1] = biological target: T1, γ-secretase (Homo sapiens, UniProt P49768); assay: SHSY5Y-APP cell-based MSD Aβ triplex screening assay; set-up: endogenous in cells; host or cells: human SH-SY5Y neuroblastoma cells stably overexpressing human APP751 wild-type
Method: (§1) All Aβ assays, including the anti-Aβ immunoprecipitation/matrix-assisted laser desorption/ionization time of flight, were carried out as described previously ([Wagner et al., 2014]).

PK in rat (i.v./po) = format: in vivo; conditions: male, plasma, Sprague–Dawley rats, 5 mg/kg po vs 1 mg/kg i.v.
Method: Male CD-1 mice and male Sprague–Dawley rats were administered a single dose of BPN-15606 by i.v. or oral gavage (po) dose routes to assess oral bioavailability. Mice and rats received BPN-15606 as a single i.v. dose at 1 mg/kg (n = 5) or a single po dose at 5 mg/kg (n = 5). Blood was collected from mice and rats at 5 (i.v. only), 15, and 30 minutes, and 1, 2, 4, 8, and 12 hours postdose for processing to plasma. For mice, brains were collected from both dose groups (i.v. and po) at 1, 4, 8, and 12 hours postdose. For rats, brains were collected from those same animals at the 12-hour time point only. […]
Data were subjected to noncompartmental analysis using WinNonlin Phoenix Model 200 (for extravascular administration) or Model 201 (for i.v. bolus administration) and the sparse sampling feature; a uniform weighting factor was applied to each data set. Time to maximum plasma concentration (Tmax) and maximum plasma concentration (Cmax) values were determined directly from the data. Area under the plasma concentration–time curve to the last time point (AUClast) values were calculated using the log/linear trapezoidal (i.v. dose) or linear up/log down trapezoidal (po dose). Values were calculated using the plasma data from composite groups. […] The volume of distribution at steady state and clearance were calculated using the i.v. group data. […]

in vivo = conditions: cynomolgus monkey
Method: (§2) The objectives of this study were to determine the MTD of BPN-15606, characterize potential toxicity, and calculate toxicokinetic parameters of BPN-15606 in adult male and female cynomolgus macaques following daily po dose administration at a near-MTD dose of BPN-15606 for 7 consecutive days. In the dose escalation phase to establish the MTD (phase A), male and female cynomolgus macaques (n = 2/sex) were administered single doses of BPN-15606 at 3, 10, 30, 100, and 300 mg/kg, with 2 to 4 days between each dose escalation (Fig. 10). […] The plasma drug concentrations at the approximate Tmax increased in a dose-dependent manner. […] Comprehensive evaluation of clinical pathology parameters (clinical chemistry, hematology), gross pathology, and histopathologic parameters was carried out at SRI International, according to their standardized protocols. Tissues examined histopathologically included the following: liver, lung, stomach, duodenum, colon, spleen, pancreas, thymus, heart, brain, and kidney.

γ-secretase [2] = biological target: T1, γ-secretase; assay: anti-Aβ immunoprecipitation/MALDI-TOF of neuronal cells; format: cell-based; set-up: endogenous in cells; host or cells: 'neuronal cells' (not specified further); conditions: neuronal cells treated overnight with 100 nM
Method: as §1

HReN-mGAP AD ReN cells = assay: Three-dimensional human neural cell culture model of AD (MSD ELISA); format: cell-based; conditions: 70 nM
Method: HReN-mGAP AD ReN cell expression APP^Swedish/London and Presenilin 1^ΔE9 were previously described ([Choi et al., 2014]). The HReN-mGAP AD ReN cells were three-dimensional (3D)–differentiated for 7 weeks, as previously described ([Choi et al., 2014]). The cultures were then harvested and analyzed for the soluble (conditioned media) and insoluble Aβ40/42/38 and p-tau/tau levels, using Meso Scale Discovery electrochemiluminescence system. BPN-15606 (70 nM) and the same volume of DMSO controls were treated in the last 4 weeks. The potential toxicity of the drugs was monitored by CytoTox-ONE (lactate dehydrogenase) assay after 1 week of the treatments. At the end of the treatments, the soluble (media) and the insoluble fractions (5 M GuHCl-soluble extracts) were collected and analyzed for Aβ38, Aβ40, and Aβ42 with MSD enzyme-linked immunosorbent assay (ELISA; V-Plex 6E10 Aβ40/Aβ42/Aβ38 kit). The custom-made plates were used for detecting total tau (BT2; ThermoFisher Scientific, Sommerset, NJ) and pThr181 tau (At270; ThermoFisher Scientific, Sommerset, NJ). The insoluble fraction was dissolved in 5 M GuHCl, and pThr181 tau, total tau, Aβ40, Aβ42, and Aβ38 concentrations were determined by MSD ELISA. The levels of the control protein Tuj1 were determined by dot-blot analysis in the GuHCl lysates (data not shown).

[3] = Toxicokinetics in NHP (300 mg/kg repeat dose); format: in vivo, cynomolgus macaques; conditions: cynomolgus monkey
Method: as §2

[4] = last 4 weeks of 7-week 3D culture, media

Q: What does the source list for `COc1nc(-c2cc(C)c(N[C@@H](C)c3ccc(F)cc3)nn2)ccc1-n1cnc(C)c1` [BPN-15606, (S)-N-(1-(4-fluorophenyl)ethyl)-6-(6-methoxy-5-(4-methyl-1H-imidazol-1-yl)pyridin-2-yl)-4-methylpyridazin-3-amine]?
A: AβTotal (γ-secretase [1]; SHSY5Y-APP cells): No change; IC50 (γ-secretase [1]; human SHSY5Y neuroblastoma cells stably overexpressing human APP751 wild-type, read-out: Aβ42 IC50): 7 nM; bioavailability (PK in rat (i.v./po)): > 60%; NOAEL (in vivo; both sexes): 30 mg/kg; MTD (in vivo; both sexes, MTD after a single-dose administration): 300 mg/kg; NOEL after a single dose (in vivo; both): 30 mg/kg; clinical signs after single doses (in vivo; both): limited to emesis in the 100 and 300 mg/kg groups; clinical pathology parameters after single-dose administration (in vivo): no apparent changes; clinical signs on repeat dosing (in vivo; po, 300 mg/kg): emesis, reduced appetite, and reduced stool; gross findings at necropsy (in vivo; po, 300 mg/kg): no gross findings at necropsy; hepatic histopathological findings (in vivo; po, 300 mg/kg): minimal sinusoidal leukocytosis in two male monkeys and moderate focal fatty infiltration in one female monkey; renal histopathological findings (in vivo; po, 300 mg/kg): mild to moderate proximal tubular necrosis, casts, and dilation with cortical and medullary subacute inflammation; Aβ37 peak (IP/MALDI-TOF) (γ-secretase [2]): significantly increased; Aβ38 peak (IP/MALDI-TOF) (γ-secretase [2]): significantly increased; Aβ40 peak (IP/MALDI-TOF) (γ-secretase [2]): significantly reduce; Aβ42 peak (IP/MALDI-TOF) (γ-secretase [2]): completely eliminate the peak; soluble Aβ38 level (HReN-mGAP AD ReN cells; [4]): increasing; soluble Aβ40 level (HReN-mGAP AD ReN cells; [4]): dramatically decreased; soluble Aβ42/40 ratio (HReN-mGAP AD ReN cells; [4]): dramatically decreased; soluble Aβ42 level (HReN-mGAP AD ReN cells; [4]): dramatically decreased; insoluble Aβ40 level (HReN-mGAP AD ReN cells; 5 M GuHCl-soluble extracts): decreased; insoluble Aβ42 level (HReN-mGAP AD ReN cells; 5 M GuHCl-soluble extracts): decreased; insoluble pThr181 tau level (HReN-mGAP AD ReN cells; 5 M GuHCl-soluble extracts): decreased; insoluble total tau level (HReN-mGAP AD ReN cells; 5 M GuHCl-soluble extracts): decreased; half-life ([3]; both sexes, plasma, po, 300 mg/kg, cynomolgus macaques, 300 mg/kg po, day 1): 522 min; half-life ([3]; both sexes, plasma, po, 300 mg/kg, cynomolgus macaques, 300 mg/kg po, day 6): 612 min; Tmax ([3]; both sexes, plasma, cynomolgus macaques, 300 mg/kg po): 2 to 4 h; exposure (AUClast) day 6 relative to day 1 ([3]; both, in vivo, po, 300 mg/kg): about 1.7 fold
